# Measurements published in patent US11878012B2, “Compositions and methods for treating traumatic brain injury” (Board of Regents, the University of Texas System, priority 2020, dated 2024).
# Key:
# DGGCs [1] = assay: Patch-clamp / current-clamp recordings of DGGCs in hippocampal slices (action potentials, AHP, IM amplitude); format: cell-based, mice
# Experimental: Hippocampal Slice Preparation. […] Hippocampal slices were maintained in oxygenated ACSF at 30° C. for 60 min and experiments were performed at 25° C.
# TRPC3 = target: T1, TRPC3 (Homo sapiens, UniProt Q13507); settings: description; cited from earlier work
# T1 sequence (Q13507 1-921): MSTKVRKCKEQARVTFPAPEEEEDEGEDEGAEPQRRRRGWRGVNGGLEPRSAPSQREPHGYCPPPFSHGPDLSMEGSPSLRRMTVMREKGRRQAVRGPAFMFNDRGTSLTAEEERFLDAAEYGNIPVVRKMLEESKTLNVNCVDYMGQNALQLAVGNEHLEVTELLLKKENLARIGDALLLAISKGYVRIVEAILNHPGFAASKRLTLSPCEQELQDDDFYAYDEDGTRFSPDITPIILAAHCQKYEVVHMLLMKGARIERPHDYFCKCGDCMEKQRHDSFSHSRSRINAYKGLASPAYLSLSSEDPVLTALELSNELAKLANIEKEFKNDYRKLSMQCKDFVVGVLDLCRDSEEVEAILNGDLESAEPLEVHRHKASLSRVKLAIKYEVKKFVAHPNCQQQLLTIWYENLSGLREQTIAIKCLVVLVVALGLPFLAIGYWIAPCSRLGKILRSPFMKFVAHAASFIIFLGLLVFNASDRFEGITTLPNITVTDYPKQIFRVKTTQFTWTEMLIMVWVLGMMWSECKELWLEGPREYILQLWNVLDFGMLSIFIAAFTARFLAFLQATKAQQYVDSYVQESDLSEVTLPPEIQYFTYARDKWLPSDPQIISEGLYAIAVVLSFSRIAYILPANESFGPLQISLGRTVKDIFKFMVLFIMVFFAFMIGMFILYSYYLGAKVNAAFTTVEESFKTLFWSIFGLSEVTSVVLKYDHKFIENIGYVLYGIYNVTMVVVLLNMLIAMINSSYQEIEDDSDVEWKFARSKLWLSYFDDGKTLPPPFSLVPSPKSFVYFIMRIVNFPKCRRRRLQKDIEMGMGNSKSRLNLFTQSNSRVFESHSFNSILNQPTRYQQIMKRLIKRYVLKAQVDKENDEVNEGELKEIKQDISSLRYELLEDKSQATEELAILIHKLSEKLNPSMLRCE
# DGGCs [2] = assay: GCaMP6f brain slice Ca2+ imaging of DGGCs after sham or CCI-TBI; format: cell-based, mice
# Text: Neuromodulation of TRPC generates robust Ca2+ influx and facilitates neuronal hyperexcitability. […] To assess the post-injury effect of TRPC channel upregulation on neurons, we used Ca2+ imaging in brain slice to measure excitability as a product of intracellular Ca2+ gating by TRPC1/4/5 channels (FIG. 4). […] Transgenic mice with the GCaMP6f transgene were used to detect changes in cellular Ca2+-activated fluorescence. We hypothesized that DGGC activity increases due to muscarinic stimulation with ACh or direct activation of TRPC4-containing channels with EA. Sensitivity was tested by bath perfusion of ACh or EA to the slice for 5 minutes during Ca2+ imaging to quantify peak amplitude of GCaMP6f fluorescence per cell, duration of Ca2+ influx, and the field-frequency of events (FIG. 4).
# Brain slice Ca2+ imaging. Transverse slices (300 μm) of hippocampus were cut with a vibratome (Thermo Scientific Microm HM650V) from Cre-CamK2+/GCamp6f+/− mice. […] Hippocampal slices were maintained in oxygenated ACSF at 30° C. for 60 min, and experiments performed at 28° C. […] Neurons were visually identified with a Nikon FN-1 microscope equipped with a 40× water-immersion objective and infrared differential interference contrast. GCaMP6f fluorescence was obtained using a SOLA Light Engine Illumination source (Lumecor) with an output of 3.5W through a 3 mm diameter liquid light guide through a Nikon ET-GFP filter. Nikon Elements software was used for image acquisition through a QIClick CCD camera (Qlmaging) with a Uniblitz Model VMM-D 1 shutter driver. Baseline time series of the DG granule layer were acquired in the presence of bath solution perfusion for 2 min. […] Images were acquired in time series with an exposure time of 200 ms at 2-10 fps at 12-bit rate and no binning. Time-series image stacks were processed with ImageJ. Images were background subtracted using the mean of the 5% lowest pixel values. Ca2+ signal events were quantified for each cell as change in fluorescence divided by the baseline fluorescence (ΔF/FO) after background subtraction. ROI signals were detrended before quantification to account for drift due to gradual photobleaching of the background.
# [3] = 2015, cited from earlier work
# [4] = TRPC4/5 channels blocked, control or plus 77-LH-28-1 3 μM
compound,measurement,setting,value
"CCCCNc1nc2ccccc2[nH]1 [M084, N-butyl-1H-benzimidazol-2-amine]",action potential threshold,"DGGCs [1]; M084 10 μm only, n=8 cells",−45.4±1.3 mV
same,action potential firing rate on M1R agonist,"DGGCs [1]; TRPC4/5 blockade with M084 10 μm, 77-LH-28-1 3 μm",did not increase
same,AHP amplitude,DGGCs [1]; [4],13.2 ± 0.7 mV
same,AHP area,DGGCs [1]; [4],196.8 ± 13.3 ms* mV
same,AHP decay,DGGCs [1]; [4],14.8 ± 0.7 ms
same,"membrane potential values (voltage floor), control ACSF vs 77-LH-28-1 3 μm",DGGCs [1]; in presence of M084 10 μm,no significant differences
same,effect on TRPC3,TRPC3,weak inhibitor or antagonist
same,Ca2+ peak amplitude,"DGGCs [2]; EA 1 μM + M084 10 μM, ipsilateral DGGCs from TBI mice",1.44±0.05 ΔF/F
same,duration of Ca2+ influx,DGGCs [2]; M084 10 μM added to EA 1 μM,attenuated the duration of influx to baseline levels
same,brain concentration at time of PTZ challenge,"[3]; 1 hour after M084 10 mg/kg s.c., inferred from Yang et al.",likely within the micromolar range
same,blood-brain barrier crossing,[3]; Yang et al.,crosses the blood-brain barrier
